# Measured values published in the supplement of paper PMC11208160.
# Test: recombinant barcode read abundance after kanamycin selection (control-corrected) (log10(CPM+1)); higher = more efficient recombination; sequences stand for … in AGTGCAGAGAAAATCGGCCAGTTTTCTCTGCCTGCAGTCCGCATGCCGT…AGATTTATGCAGCGGACTGCCTTTCTCCCAAAGTGATAAACCGGACAGTATCATGGACCGGTTTTCCCGGTAATCCGTATTTGCAAGGTTGGTTTCACT; site = the 11-nt target
# Procedure, shortened: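 In a pooled screen in E. coli, targets were paired with target-binding loops of the IS621 bridge RNA. Each oligo carried a promoter, a target, a barcode and the first 104 bridge RNA bases driven by J23119, and was Gibson-cloned into a vector holding the remaining 73 bp and a T7-inducible recombinase before co-electroporation with a donor plasmid. Duplicate platings went onto chloramphenicol/ampicillin LB agar as the control or onto chloramphenicol/ampicillin/kanamycin with 0.1 mM IPTG. Recombination efficiency is the averaged, control-corrected count per million of barcodes at recombinant junctions, given as log10(CPM+1).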
# 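Further: IS621 recombinase and bridge RNA in Escherichia coli cells.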
row,Sequence,recombinant barcode read abundance (log10)
1,TGAGTCCCTTGGGTTCTAACCTGTTGCAG (site AAGTGGTCTTA),0.149
2,TGAGTCCCTTGGGTTCTAACCTGTTGCAG (site TGAGTCCCTCT),2.79
3,TGAGTCCCTTGGGTTCTAACCTGTTGCTA (site TGAGTCCCTTA),2.27
4,TGAGTCCCTTGGGTTCTAACCTGTTGCTA (site TGGGTCCCTAA),0.0131
5,TGAGTGGCTTGGGTTCTAACCTGTTGCCT (site TGAGAGGCTAG),0.129
6,TGAGTGGCTTGGGTTCTAACCTGTTGCCT (site TGAGCGGCTAG),0.108
7,TGAGTGGCTTGGGTTCTAACCTGTTGCCT (site TGAGGGGCTAG),0.00884
8,TGAGTGGCTTGGGTTCTAACCTGTTGCCT (site TGAGTGGCTAG),0.749
9,TGATAGCCTTGGGTTCTAACCTGTTGCCT (site AGATAGCCTAG),0.063
10,TGATAGCCTTGGGTTCTAACCTGTTGCCT (site CGATAGCCTAG),0.0141
11,TGATAGCCTTGGGTTCTAACCTGTTGCCT (site GGATAGCCTAG),0.159
12,TGATAGCCTTGGGTTCTAACCTGTTGCCT (site TGATAGCCTAG),0.901
13,TGATATTCTTGGGTTCTAACCTGTTGCCT (site ACCAGCCCTCA),0.448
14,TGATATTCTTGGGTTCTAACCTGTTGCCT (site TGATATTCTAG),0.245
15,TGATCTCCTTGGGTTCTAACCTGTTGCAT (site TGATCTCCTAA),0.186
16,TGATCTCCTTGGGTTCTAACCTGTTGCAT (site TGATCTCCTAT),0.28
17,TGATCTCCTTGGGTTCTAACCTGTTGCTT (site TGATCTCCTAA),0.0107
18,TGATCTCCTTGGGTTCTAACCTGTTGCTT (site TGATCTCCTAT),0.0466
19,TGCCAGCCTTGGGTTCTAACCTGTTGCCT (site TGCCAGACTAT),0.114
20,TGCCAGCCTTGGGTTCTAACCTGTTGCCT (site TGCCAGCCTAG),0.0668
21,TGCCTATCTTGGGTTCTAACCTGTTGCCT (site TACCTATCTAG),0.234
22,TGCCTATCTTGGGTTCTAACCTGTTGCCT (site TCCCTATCTAG),0.0417

row,Sequence,recombinant barcode read abundance (log10)
1,TGCCTATCTTGGGTTCTAACCTGTTGCCT (site TGCCTATCTAG),0.28
2,TGCCTATCTTGGGTTCTAACCTGTTGCCT (site TTCCTATCTAG),0.0491
3,TGCGAGTCTTGGGTTCTAACCTGTTGCGT (site TGCGAGTCTAC),2.87
4,TGCGAGTCTTGGGTTCTAACCTGTTGCGT (site TTCGAGTCTCC),0.0688
5,TGCGCAACTTGGGTTCTAACCTGTTGCCT (site TGCGCAACTAG),0.0344
6,TGCGCAACTTGGGTTCTAACCTGTTGCCT (site TGCGCCACTAG),0.256
7,TGCGCAACTTGGGTTCTAACCTGTTGCCT (site TGCGCGACTAG),0.0979
8,TGCGCAACTTGGGTTCTAACCTGTTGCCT (site TGCGCTACTAG),0.0921
9,TGCGCGACTTGGGTTCTAACCTGTTGCCT (site TGCGCAACTAG),0.0131
10,TGCGCGACTTGGGTTCTAACCTGTTGCCT (site TGCGCCACTAG),0.0885
11,TGCGCGACTTGGGTTCTAACCTGTTGCCT (site TGCGCGACTAG),0.032
12,TGCGCGACTTGGGTTCTAACCTGTTGCCT (site TGCGCTACTAG),0.0869
13,TGCGGAGCTTGGGTTCTAACCTGTTGCCT (site TGCCGACCTAG),0.163
14,TGCGGAGCTTGGGTTCTAACCTGTTGCCT (site TGCGGAGCTAG),0.875
15,TGCGGAGCTTGGGTTCTAACCTGTTGCGG (site AACGGAGCTCC),0.348
16,TGCGGAGCTTGGGTTCTAACCTGTTGCGG (site TGCGGAGCTCC),1.81
17,TGCGTGTCTTGGGTTCTAACCTGTTGCTG (site TACGTGTCTTA),0.0382
18,TGCGTGTCTTGGGTTCTAACCTGTTGCTG (site TGCGTGTCTCA),1.6
19,TGCTGGGCTTGGGTTCTAACCTGTTGCTG (site CTTCATTCTAG),0.225
20,TGCTGGGCTTGGGTTCTAACCTGTTGCTG (site TGCTGGGCTCA),0.32
21,TGCTGTCCTTGGGTTCTAACCTGTTGCCT (site TGCTGTACTAG),0.2
22,TGCTGTCCTTGGGTTCTAACCTGTTGCCT (site TGCTGTCCTAG),0.111

row,Sequence,recombinant barcode read abundance (log10)
1,TGCTGTCCTTGGGTTCTAACCTGTTGCCT (site TGCTGTGCTAG),0.139
2,TGCTGTCCTTGGGTTCTAACCTGTTGCCT (site TGCTGTTCTAG),0.0325
3,TGCTGTCCTTGGGTTCTAACCTGTTGCTT (site CAGACGACTTG),0.127
4,TGCTGTCCTTGGGTTCTAACCTGTTGCTT (site TGCTGTCCTAA),0.00473
5,TGGAACCCTTGGGTTCTAACCTGTTGCGG (site TGGAACCCTCC),0.706
6,TGGAACCCTTGGGTTCTAACCTGTTGCGG (site TGGCACCCTCC),0.0841
7,TGGAGAGCTTGGGTTCTAACCTGTTGCAG (site ACCTTGCCTTA),0.0256
8,TGGAGAGCTTGGGTTCTAACCTGTTGCAG (site TGGAGAGCTCT),2.3
9,TGGAGCCCTTGGGTTCTAACCTGTTGCAC (site TGGAGCCCTAT),0.0355
10,TGGAGCCCTTGGGTTCTAACCTGTTGCAC (site TGGAGCCCTCT),0.114
11,TGGAGCCCTTGGGTTCTAACCTGTTGCAC (site TGGAGCCCTGT),0.253
12,TGGAGCCCTTGGGTTCTAACCTGTTGCAC (site TGGAGCCCTTT),0.0674
13,TGGAGTCCTTGGGTTCTAACCTGTTGCTT (site TGGAGCCCTAA),0.276
14,TGGAGTCCTTGGGTTCTAACCTGTTGCTT (site TGGAGTCCTAA),0.605
15,TGGATCACTTGGGTTCTAACCTGTTGCCT (site TGGAACACTAG),0.0491
16,TGGATCACTTGGGTTCTAACCTGTTGCCT (site TGGACCACTAG),0.0457
17,TGGATCACTTGGGTTCTAACCTGTTGCCT (site TGGAGCACTAG),0.0771
18,TGGATCACTTGGGTTCTAACCTGTTGCCT (site TGGATCACTAG),1.09
19,TGGCCCTCTTGGGTTCTAACCTGTTGCTC (site TGGCCCTCTAA),0.0244
20,TGGCCCTCTTGGGTTCTAACCTGTTGCTC (site TGGCCCTCTCA),0.304
21,TGGCCCTCTTGGGTTCTAACCTGTTGCTC (site TGGCCCTCTGA),1.79
22,TGGCCCTCTTGGGTTCTAACCTGTTGCTC (site TGGCCCTCTTA),0.0751

row,Sequence,recombinant barcode read abundance (log10)
1,TGGCGTACTTGGGTTCTAACCTGTTGCCT (site TGGAGTACTAG),0
2,TGGCGTACTTGGGTTCTAACCTGTTGCCT (site TGGCGTACTAG),0.229
3,TGGCGTACTTGGGTTCTAACCTGTTGCCT (site TGGGGTACTAG),0.0637
4,TGGCGTACTTGGGTTCTAACCTGTTGCCT (site TGGTGTACTAG),0.149
5,TGGCTAGCTTGGGTTCTAACCTGTTGCCT (site TGACTAGCTAG),0.052
6,TGGCTAGCTTGGGTTCTAACCTGTTGCCT (site TGCCTAGCTAG),0.0442
7,TGGCTAGCTTGGGTTCTAACCTGTTGCCT (site TGGCTAGCTAG),0.242
8,TGGCTAGCTTGGGTTCTAACCTGTTGCCT (site TGTCTAGCTAG),0.0845
9,TGGGACCCTTGGGTTCTAACCTGTTGCAT (site TGCGACCCTAA),0.261
10,TGGGACCCTTGGGTTCTAACCTGTTGCAT (site TGGGACCCTAT),1.25
11,TGGGCGGCTTGGGTTCTAACCTGTTGCCT (site TAGGTGGCTAG),0.133
12,TGGGCGGCTTGGGTTCTAACCTGTTGCCT (site TGGGCGGCTAG),0.411
13,TGGGGCCCTTGGGTTCTAACCTGTTGCCG (site GCAATTACTAA),0.09
14,TGGGGCCCTTGGGTTCTAACCTGTTGCCG (site TGGGGCCCTCG),1.9
15,TGGGTGACTTGGGTTCTAACCTGTTGCCT (site GCCTGCCCTCA),0.422
16,TGGGTGACTTGGGTTCTAACCTGTTGCCT (site TGGGTGACTAG),0.057
17,TGGTAACCTTGGGTTCTAACCTGTTGCCT (site AGGTAACCTAG),0.0194
18,TGGTAACCTTGGGTTCTAACCTGTTGCCT (site CGGTAACCTAG),0.172
19,TGGTAACCTTGGGTTCTAACCTGTTGCCT (site GGGTAACCTAG),0.148
20,TGGTAACCTTGGGTTCTAACCTGTTGCCT (site TGGTAACCTAG),0.571
